Experimental data published in ChEMBL document CHEMBL1201862, “PubChem BioAssay data set” (2004).
The source made the active and inactive calls.

What was measured:
[1] = target: Eukaryotic translation initiation factor 4E (Mus musculus, UniProt P63073); assay: eIF4E–eIF4G protein interaction inhibitors, dose response, biochemical, TR-FRET (AID 855); assay type: functional;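 further: potency for disrupting eIF4E binding to eIF4GI seen as loss of FRET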
[2] = target: FAD-linked sulfhydryl oxidase ALR (Homo sapiens, UniProt P55789); assay: inhibitors of human ALR sulfhydryl oxidase, dose response, biochemical, H2O2 detection, luminescence, cherry-pick (AID 493248)
FAD-linked sulfhydryl oxidase ALR, sequence (P55789 whole entry): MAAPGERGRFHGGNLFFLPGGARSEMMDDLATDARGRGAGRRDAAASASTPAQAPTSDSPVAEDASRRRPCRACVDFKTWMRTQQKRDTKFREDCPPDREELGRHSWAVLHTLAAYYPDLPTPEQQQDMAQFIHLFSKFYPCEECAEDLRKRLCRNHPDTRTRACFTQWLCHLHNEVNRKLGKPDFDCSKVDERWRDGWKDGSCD

[3] = target: T1, Rac GTPase-activating protein 1 (Homo sapiens, UniProt Q9H0H5); assay: MgcRacGAP GTPase-activating activity inhibitors, confirmation, biochemical, ADP Hunter fluorescence, primary and confirmatory (AID 624330); assay type: functional
T1 sequence (Q9H0H5 whole entry): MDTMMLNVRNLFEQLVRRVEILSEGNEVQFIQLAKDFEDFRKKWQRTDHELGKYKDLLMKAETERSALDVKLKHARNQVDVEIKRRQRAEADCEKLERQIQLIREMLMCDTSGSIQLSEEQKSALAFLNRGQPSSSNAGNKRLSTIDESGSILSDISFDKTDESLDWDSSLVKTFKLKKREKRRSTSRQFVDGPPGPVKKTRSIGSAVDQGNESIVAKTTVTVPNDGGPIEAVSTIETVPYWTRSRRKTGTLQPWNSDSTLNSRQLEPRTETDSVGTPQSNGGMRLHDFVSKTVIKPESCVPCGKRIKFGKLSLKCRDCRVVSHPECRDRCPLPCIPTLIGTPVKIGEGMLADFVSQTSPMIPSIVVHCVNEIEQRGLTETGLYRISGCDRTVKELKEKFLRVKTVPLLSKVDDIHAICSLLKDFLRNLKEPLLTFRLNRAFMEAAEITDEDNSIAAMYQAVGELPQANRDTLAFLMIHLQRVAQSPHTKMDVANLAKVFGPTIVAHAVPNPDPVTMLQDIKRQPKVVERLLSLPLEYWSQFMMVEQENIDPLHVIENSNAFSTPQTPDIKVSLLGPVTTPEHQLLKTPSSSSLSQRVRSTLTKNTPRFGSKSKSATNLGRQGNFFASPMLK

[4] = target: DNA dC->dU-editing enzyme APOBEC-3G (Homo sapiens, UniProt Q9HC16); assay: Dose Response confirmation of small molecule APOBEC3G DNA Deaminase Inhibitors via a fluorescence-based single-stranded DNA deaminase assay. [Related pubchem assays (depositor defined):AID493012, AID493028]; assay type: functional
DNA dC->dU-editing enzyme APOBEC-3G, sequence (Q9HC16 whole entry): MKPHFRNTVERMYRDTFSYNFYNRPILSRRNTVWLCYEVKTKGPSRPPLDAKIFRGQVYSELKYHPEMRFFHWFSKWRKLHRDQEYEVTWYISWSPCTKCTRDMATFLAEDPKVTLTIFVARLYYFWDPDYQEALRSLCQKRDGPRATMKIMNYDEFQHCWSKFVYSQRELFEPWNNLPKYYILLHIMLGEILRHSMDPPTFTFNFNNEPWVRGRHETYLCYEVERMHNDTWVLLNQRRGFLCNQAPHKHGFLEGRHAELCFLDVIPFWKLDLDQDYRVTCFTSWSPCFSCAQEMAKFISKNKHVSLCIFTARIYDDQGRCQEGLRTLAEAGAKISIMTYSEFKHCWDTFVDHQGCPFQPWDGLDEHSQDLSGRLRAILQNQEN

[5] = target: DNA dC->dU-editing enzyme APOBEC-3A (Homo sapiens, UniProt P31941); assay: APOBEC3A DNA deaminase inhibitors, dose response, biochemical (AID 504722); assay type: functional
DNA dC->dU-editing enzyme APOBEC-3A, sequence (P31941 whole entry): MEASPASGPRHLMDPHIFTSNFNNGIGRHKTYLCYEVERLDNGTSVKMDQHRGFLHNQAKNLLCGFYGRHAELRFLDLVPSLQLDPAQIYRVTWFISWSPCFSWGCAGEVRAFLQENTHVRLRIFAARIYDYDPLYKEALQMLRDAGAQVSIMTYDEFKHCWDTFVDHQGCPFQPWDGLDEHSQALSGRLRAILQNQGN

[6] = C. albicans growth with fluconazole, confirmation, fluorescence, retest (AID 2467); assay type: functional, cell-based
Cytochrome P450 3A4 = Cytochrome P450 3A4 (Homo sapiens, UniProt P08684);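 further: CYP3A4 tested as one member of a cytochrome P450 panel screen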
Cytochrome P450 3A4, sequence (P08684 whole entry): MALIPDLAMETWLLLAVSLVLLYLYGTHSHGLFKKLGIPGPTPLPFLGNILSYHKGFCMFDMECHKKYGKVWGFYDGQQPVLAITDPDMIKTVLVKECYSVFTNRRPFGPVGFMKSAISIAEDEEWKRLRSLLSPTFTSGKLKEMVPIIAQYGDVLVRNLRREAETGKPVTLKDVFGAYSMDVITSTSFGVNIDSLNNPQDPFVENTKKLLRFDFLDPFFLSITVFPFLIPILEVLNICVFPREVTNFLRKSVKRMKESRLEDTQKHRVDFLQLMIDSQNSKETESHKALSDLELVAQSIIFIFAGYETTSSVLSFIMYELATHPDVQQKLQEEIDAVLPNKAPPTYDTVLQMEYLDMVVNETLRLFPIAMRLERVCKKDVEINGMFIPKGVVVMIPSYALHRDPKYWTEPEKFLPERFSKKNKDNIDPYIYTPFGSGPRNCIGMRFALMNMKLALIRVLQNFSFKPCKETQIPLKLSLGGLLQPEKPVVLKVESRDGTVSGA

[7] = NIH-3T3 fibroblast cytotoxicity, dose response, cytotoxicity control, cell-based, fluorescence, Alamar Blue, secondary assay (AID 2327); assay type: functional;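 further: NIH-3T3 mouse fibroblasts cultured with fluconazole at 8 µg/mL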
Cytochrome P450 2D6 = Cytochrome P450 2D6 (Homo sapiens, UniProt P10635);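 further: CYP2D6 member of a cytochrome P450 panel assay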
Cytochrome P450 2D6, sequence (P10635 whole entry): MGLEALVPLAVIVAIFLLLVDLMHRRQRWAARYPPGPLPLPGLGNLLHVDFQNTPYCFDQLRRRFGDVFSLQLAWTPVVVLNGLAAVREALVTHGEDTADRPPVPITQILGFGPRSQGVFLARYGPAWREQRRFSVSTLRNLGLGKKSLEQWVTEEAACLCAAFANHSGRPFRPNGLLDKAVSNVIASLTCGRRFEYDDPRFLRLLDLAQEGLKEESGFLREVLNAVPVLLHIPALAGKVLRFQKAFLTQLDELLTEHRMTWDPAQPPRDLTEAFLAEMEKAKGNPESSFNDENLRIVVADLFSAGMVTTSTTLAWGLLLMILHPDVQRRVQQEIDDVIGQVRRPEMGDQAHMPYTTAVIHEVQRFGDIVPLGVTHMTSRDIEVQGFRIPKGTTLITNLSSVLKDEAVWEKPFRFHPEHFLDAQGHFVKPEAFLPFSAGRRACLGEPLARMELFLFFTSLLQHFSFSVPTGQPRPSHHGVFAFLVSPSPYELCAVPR

Cytochrome P450 2C9 = Cytochrome P450 2C9 (Homo sapiens, UniProt P11712)
Cytochrome P450 2C9, sequence (P11712 whole entry): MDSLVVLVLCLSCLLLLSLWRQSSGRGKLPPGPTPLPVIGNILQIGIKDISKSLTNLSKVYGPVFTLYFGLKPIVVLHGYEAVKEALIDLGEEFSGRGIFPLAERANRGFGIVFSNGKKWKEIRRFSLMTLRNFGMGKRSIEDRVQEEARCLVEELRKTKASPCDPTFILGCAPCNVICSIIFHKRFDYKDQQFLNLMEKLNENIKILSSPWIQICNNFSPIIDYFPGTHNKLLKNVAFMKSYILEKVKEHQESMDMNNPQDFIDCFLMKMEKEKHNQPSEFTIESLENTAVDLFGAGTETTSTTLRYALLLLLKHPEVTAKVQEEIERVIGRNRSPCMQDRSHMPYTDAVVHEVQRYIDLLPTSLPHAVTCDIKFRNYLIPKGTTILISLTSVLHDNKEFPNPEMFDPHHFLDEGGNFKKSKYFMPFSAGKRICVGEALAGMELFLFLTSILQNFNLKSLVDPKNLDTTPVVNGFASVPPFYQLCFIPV

X-box-binding protein 1 = X-box-binding protein 1 (Homo sapiens, UniProt P17861); assay type: functional, Cricetulus griseus;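 further: confirmatory dose-response counter-screen serving a CHOP assay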
X-box-binding protein 1, sequence (P17861 whole entry): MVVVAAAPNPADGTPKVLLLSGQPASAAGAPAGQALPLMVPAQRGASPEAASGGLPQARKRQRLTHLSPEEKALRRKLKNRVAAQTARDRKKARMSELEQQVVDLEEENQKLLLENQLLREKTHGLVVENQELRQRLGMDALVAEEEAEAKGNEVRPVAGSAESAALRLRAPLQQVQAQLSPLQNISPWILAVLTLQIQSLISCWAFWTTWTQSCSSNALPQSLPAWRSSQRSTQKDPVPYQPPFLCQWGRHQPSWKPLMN

[8] = target: T2, Replicative DNA helicase DnaB (Mycobacterium tuberculosis, UniProt P9WMR3); assay: DnaB intein splicing inhibitors, dose response, biochemical, cell-free fluorescence (AID 449749); assay type: functional
T2 sequence (P9WMR3 whole entry): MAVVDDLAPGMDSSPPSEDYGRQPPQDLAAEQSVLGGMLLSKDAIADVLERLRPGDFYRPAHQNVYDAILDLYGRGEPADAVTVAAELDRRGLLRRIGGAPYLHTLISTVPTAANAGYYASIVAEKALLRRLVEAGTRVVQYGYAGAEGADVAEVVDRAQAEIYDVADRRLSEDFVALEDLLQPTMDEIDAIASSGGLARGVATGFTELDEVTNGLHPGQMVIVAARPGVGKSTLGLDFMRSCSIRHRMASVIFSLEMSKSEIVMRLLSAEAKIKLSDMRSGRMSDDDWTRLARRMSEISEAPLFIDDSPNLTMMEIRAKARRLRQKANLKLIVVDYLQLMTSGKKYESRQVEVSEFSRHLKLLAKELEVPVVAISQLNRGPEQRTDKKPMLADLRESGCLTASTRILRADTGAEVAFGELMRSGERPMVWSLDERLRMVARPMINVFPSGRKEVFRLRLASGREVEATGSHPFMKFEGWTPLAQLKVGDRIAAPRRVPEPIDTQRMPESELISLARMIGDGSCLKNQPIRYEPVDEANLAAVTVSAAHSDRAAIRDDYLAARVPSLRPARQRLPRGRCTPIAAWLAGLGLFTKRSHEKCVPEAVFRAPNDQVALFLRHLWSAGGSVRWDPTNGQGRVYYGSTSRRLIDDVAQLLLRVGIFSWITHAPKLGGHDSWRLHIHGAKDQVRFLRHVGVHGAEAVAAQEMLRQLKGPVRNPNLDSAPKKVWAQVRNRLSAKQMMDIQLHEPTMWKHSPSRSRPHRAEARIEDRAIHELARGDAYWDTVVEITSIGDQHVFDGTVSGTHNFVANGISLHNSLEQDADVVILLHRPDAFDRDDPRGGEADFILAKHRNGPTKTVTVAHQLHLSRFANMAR

Protein RecA = target: T3, Protein RecA (Mycobacterium tuberculosis, UniProt P9WHJ3); assay: Fluorescence Cell-Free Homogeneous Dose Retest to Identify Inhibitors of RecA-Intein Splicing Activity. [Related pubchem assays (depositor defined):AID2097, AID2223, AID489010, AID492950]; assay type: functional
T3 sequence (P9WHJ3 whole entry): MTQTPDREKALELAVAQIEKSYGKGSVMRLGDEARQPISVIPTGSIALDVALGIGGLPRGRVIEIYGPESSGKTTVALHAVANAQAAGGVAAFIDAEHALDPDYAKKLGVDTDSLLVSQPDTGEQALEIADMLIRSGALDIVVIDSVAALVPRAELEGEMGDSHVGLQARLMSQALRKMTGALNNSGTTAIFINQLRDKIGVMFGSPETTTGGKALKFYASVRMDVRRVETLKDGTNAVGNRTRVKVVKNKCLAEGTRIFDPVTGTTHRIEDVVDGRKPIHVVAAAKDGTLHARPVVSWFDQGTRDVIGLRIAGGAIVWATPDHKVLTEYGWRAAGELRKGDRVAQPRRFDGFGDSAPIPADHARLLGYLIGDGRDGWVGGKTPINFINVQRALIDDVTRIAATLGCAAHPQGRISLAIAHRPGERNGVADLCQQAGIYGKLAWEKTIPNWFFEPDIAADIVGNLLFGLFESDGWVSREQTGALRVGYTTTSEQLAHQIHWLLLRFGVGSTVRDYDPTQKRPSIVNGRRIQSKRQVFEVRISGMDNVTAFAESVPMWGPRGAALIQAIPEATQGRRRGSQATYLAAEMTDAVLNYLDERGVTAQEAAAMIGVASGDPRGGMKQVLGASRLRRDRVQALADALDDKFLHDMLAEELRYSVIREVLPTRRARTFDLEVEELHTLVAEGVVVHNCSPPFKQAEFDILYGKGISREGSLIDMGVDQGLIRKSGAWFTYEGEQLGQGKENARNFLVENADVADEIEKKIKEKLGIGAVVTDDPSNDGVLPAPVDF

Paired box protein Pax-8 = Paired box protein Pax-8 (Homo sapiens, UniProt Q06710); assay: inhibitors of PAX8-driven TPO luciferase reporter, dose response, RMG-I cells, cherry-pick (AID 687027); assay type: functional, cell-based;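 further: luciferase reporter driven by Pax8 target thyroperoxidase promoter measured by SteadyGlo luminescence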
Paired box protein Pax-8, sequence (Q06710 whole entry): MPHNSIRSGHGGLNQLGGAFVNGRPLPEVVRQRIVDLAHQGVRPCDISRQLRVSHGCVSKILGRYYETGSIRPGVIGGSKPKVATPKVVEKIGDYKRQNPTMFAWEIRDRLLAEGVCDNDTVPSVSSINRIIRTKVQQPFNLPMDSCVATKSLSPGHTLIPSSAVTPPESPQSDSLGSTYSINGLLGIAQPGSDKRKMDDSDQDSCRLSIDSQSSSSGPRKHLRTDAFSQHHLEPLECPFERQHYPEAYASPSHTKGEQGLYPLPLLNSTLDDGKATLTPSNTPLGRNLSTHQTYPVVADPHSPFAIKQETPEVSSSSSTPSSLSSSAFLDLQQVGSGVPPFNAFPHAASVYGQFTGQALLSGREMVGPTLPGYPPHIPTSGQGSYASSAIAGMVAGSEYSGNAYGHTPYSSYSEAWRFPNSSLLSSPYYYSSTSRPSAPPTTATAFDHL

HEK293 [9] = assay: cells; assay type: functional, cell-based; conditions: Homo sapiens
[10] = Luminescence Cell-Based Dose Response HTS to Identify Inhibitors of 5'UTR Stem-Loop Driven Prion Protein mRNA Translation in H4 Neuroglioblastoma Cells. [Related pubchem assays: 1827 (Project Summary), 1813 (Primary HTS)]; assay type: functional
Mu-type opioid receptor = Mu-type opioid receptor (Homo sapiens, UniProt P35372); assay: HTS Image-Based Screen for Agonists of the MOR Receptor. [Related pubchem assays (depositor defined):AID1777, AID1785, AID1786, AID2133]; assay type: functional;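 further: imaging of beta-arrestin GFP recruitment into spots after receptor activation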
Mu-type opioid receptor, sequence (P35372 whole entry): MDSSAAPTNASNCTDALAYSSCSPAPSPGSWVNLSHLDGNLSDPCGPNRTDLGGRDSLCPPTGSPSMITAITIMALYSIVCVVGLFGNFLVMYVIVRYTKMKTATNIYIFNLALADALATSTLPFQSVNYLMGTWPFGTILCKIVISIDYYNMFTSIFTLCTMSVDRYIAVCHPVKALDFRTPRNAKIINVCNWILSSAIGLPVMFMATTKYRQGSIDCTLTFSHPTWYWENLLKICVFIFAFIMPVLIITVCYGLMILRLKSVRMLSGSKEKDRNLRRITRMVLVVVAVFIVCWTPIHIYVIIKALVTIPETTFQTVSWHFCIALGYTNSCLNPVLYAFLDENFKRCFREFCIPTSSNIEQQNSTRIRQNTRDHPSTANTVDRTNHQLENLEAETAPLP

HEK293 [11] = assay: NOD1 signaling inhibitors, primary screen, cell-based, luminescence, uHTS (AID 1578); assay type: functional; conditions: Homo sapiens
[12] = Fluorescence-based cell-based high throughput dose response assay for inhibitors of the interaction of nucleotide-binding oligomerization domain containing 2 (NOD2) and the receptor-interacting serine-threonine kinase 2 (RIPK2).; assay type: functional; conditions: Homo sapiens
HEK293 [13] = assay: cells; assay type: functional, cell-based; conditions: Homo sapiens; remark: listed apart in the source
[14] = Shn3 3'UTR reporter inhibitors, dose response, cell-based, Clone20 osteoblasts, firefly luciferase, cherry-picked (AID 624132); assay type: functional;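 further: firefly luciferase luminescence from reporter carrying the Shn3 3'UTR in osteoblasts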
[15] = target: T4, Kappa-type opioid receptor (Homo sapiens, UniProt P41145); assay type: functional
T4 sequence (P41145 whole entry): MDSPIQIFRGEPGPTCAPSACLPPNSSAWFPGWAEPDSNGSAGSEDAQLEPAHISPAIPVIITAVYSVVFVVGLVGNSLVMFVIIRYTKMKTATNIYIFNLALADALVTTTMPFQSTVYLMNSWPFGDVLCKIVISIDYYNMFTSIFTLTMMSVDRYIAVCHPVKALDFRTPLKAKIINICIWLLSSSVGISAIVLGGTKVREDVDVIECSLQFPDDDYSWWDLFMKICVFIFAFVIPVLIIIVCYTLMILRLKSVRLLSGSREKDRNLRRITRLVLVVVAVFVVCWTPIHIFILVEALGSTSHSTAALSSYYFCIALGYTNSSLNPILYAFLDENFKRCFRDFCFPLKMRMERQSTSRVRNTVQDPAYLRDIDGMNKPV

[16] = HepG2 cell cytotoxicity, dose response, cytotoxicity control for Shn3 inhibitor project, CellTiter-Glo, cherry-picked (AID 624134); assay type: functional, cell-based
HEK293 [17] = assay: NOD2 signaling inhibitors in MDP-stimulated cells, cell-based, uHTS, luminescence (AID 2001); assay type: functional; conditions: Homo sapiens
Beta Lactamase = Beta Lactamase (Pseudomonas aeruginosa, UniProt Q932Y6); assay: beta-lactamase reporter inhibitor potency, dose response, artefact control for NOD2-RIPK2 interaction inhibitor project, BLA reporter cells, FRET fluorescence (AID 651552); assay type: functional, cell-based
Beta Lactamase, sequence (Q932Y6 whole entry): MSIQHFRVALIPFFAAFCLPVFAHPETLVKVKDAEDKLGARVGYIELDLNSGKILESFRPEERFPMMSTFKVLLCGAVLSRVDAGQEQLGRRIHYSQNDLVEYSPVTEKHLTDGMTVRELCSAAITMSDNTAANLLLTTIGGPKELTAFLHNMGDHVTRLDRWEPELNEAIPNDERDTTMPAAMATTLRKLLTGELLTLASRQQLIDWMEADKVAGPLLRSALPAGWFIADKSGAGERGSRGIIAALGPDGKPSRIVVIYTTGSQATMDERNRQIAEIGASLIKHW

[18] = target: T5, Delta-type opioid receptor (Homo sapiens, UniProt P41143); assay: HTS Image-Based Screen for Agonists of the DOR Receptor. [Related pubchem assays (depositor defined):AID1777, AID1786, AID2133]; assay type: functional
T5 sequence (P41143 whole entry): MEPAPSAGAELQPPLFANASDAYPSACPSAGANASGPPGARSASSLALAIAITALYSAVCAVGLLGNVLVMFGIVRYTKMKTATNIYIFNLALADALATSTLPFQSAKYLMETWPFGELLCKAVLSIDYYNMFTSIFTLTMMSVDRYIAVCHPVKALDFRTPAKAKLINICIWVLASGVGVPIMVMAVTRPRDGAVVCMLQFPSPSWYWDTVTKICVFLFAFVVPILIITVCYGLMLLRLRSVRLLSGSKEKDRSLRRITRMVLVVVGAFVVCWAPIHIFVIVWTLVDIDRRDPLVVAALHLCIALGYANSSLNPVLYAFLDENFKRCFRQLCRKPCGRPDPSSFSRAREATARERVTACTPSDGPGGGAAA

Beta-galactosidase = Beta-galactosidase (Escherichia coli, UniProt Q8VNN2); assay type: functional
[19] = target: T6, Microphthalmia-associated transcription factor (Homo sapiens, UniProt O75030); assay: TRPM1 promoter luciferase signal decrease, dose response, MITF inhibitor project, cell-based, SK-MEL-5, cherry-picked, set 3 (AID 493073); assay type: functional
T6 sequence (O75030 whole entry): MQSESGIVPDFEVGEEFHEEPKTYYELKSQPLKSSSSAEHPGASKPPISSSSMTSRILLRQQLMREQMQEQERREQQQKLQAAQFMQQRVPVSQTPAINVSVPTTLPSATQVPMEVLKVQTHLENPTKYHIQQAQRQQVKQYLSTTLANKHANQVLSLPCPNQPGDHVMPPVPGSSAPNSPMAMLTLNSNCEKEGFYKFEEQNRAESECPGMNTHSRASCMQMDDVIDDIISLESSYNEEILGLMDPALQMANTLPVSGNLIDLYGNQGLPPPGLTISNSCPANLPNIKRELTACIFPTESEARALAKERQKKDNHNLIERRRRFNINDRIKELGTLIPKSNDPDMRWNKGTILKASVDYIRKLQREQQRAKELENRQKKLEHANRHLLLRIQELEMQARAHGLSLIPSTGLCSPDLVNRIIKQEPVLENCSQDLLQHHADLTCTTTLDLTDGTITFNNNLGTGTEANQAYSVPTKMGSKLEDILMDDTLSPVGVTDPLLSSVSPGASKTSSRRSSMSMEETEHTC

BJ [20] = assay: cytotoxicity toward BJ-TERT-LT-ST fibroblasts, dose response, cell-based, RAS-independent, luminescence (AID 1935); assay type: functional; conditions: Homo sapiens;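 further: BJ fibroblasts immortalized with TERT plus LT and ST oncogenes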
[21] = target: T5, Delta-type opioid receptor; assay: HTS Image-Based Screen for Antagonists of the DOR Receptor. [Related pubchem assays (depositor defined):AID1777, AID1785, AID1786, AID2133]; assay type: functional
BJ [22] = assay: cytotoxicity toward BJ-TERT fibroblasts, dose response, cell-based, RAS-independent, luminescence (AID 1933); assay type: functional; conditions: Homo sapiens
[23] = inhibitors of SNCA 5'UTR-driven reporter translation, confirmation, H4 neuroglioma cells, luminescence (AID 1988); assay type: functional, cell-based
[24] = cytotoxicity toward DRD oncogenic fibroblasts, dose response, cell-based, non-viral oncogenic, luminescence (AID 1934); assay type: functional; conditions: Homo sapiens
[25] = inhibitors of firefly luciferase expression or activity, dose response, H4 neuroglioma cells, luminescence (AID 1990); assay type: functional, cell-based
[26] = target: T4, Kappa-type opioid receptor; assay type: functional; remark: listed apart in the source
[27] = control 3'UTR Renilla luciferase suppression, dose response, counter-screen for Shn3 inhibitor project, cell-based, Clone20-Shn3RL, cherry-picked (AID 624133); assay type: functional
BJ [28] = assay: cells; assay type: functional, cell-based; conditions: Homo sapiens

Eukaryotic translation initiation factor 4E, sequence (P63073 whole entry): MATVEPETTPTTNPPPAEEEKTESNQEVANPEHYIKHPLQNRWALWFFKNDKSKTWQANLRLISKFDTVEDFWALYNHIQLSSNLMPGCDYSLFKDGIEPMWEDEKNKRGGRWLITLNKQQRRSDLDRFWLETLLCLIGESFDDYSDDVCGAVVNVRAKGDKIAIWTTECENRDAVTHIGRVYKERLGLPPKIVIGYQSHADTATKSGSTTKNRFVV

CCn1nnnc1SCC(=O)Nc1cccc(NC(C)=O)c1
IC50 [1]: > 64 µM (inactive)

Sc1nnc(-c2ccncc2)n1/N=C/C=C/c1ccccc1
AC50 [2]: 8.12 µM (active)
IC50 [3]: 125 µM (active)
IC50 [4]: 2.76 µM (active)
IC50 [5]: > 100 µM (inactive)

CC(=O)Nc1ccc(N2CCCCC2)c(C(=O)Nc2cccc(C)c2)c1
IC50 [1]: > 64 µM (inactive)
EC50 [6]: > 38 µM (not active)
AC50 (Cytochrome P450 3A4): 22.4 µM (inconclusive)
EC50 [7]: 50.5 µM (active)
AC50 (Cytochrome P450 2D6): 17.8 µM (inconclusive)
AC50 (Cytochrome P450 2C9): 12.6 µM (inconclusive)

Cc1cc(-c2[nH]nc3c2C(c2ccc(Cl)cc2)C(C#N)=C(N)O3)c(C)s1 (stereo not drawn)
Absolute IC50 (XBP1) (X-box-binding protein 1): 10 µM
AC50 [8]: 3.07 µM (active)
EC50 (Protein RecA): 3.42 µM (active)

COCCN(CC(=O)NC1CCCCC1)C(=O)/C=C/C(=O)c1ccc(OC)cc1O
AC50 (Paired box protein Pax-8): 5.38 µM (active)
IC50 (HEK293 [9]): 16.6 µM (active)
EC50 [10]: 9.57 µM (active)
EC50 (Mu-type opioid receptor): > 32 µM (inactive)
EC50 (HEK293 [11]): > 20 µM (inactive)
IC50 [12]: 3.11 µM (active)
IC50 (HEK293 [13]): > 20 µM (inactive)
AC50 [14]: 2.58 µM (active)
IC50 [15]: 7.13 µM (active)
AC50 [16]: 13.7 µM (active)
IC50 (HEK293 [17]): > 20 µM (inactive)
IC50 (Beta Lactamase): 17.8 µM (inactive)
EC50 [18]: > 32 µM (inactive)
EC50 (Beta-galactosidase): > 31.5 µM (inactive)
AC50 [19]: 5.48 µM (active)
EC50 (BJ [20]): 1.62 µM (inconclusive)
IC50 [21]: > 32 µM (inactive)
EC50 (BJ [22]): 2.71 µM (inconclusive)
EC50 [23]: > 120 µM (not active)
EC50 [24]: 2.74 µM (inconclusive)
EC50 [25]: 8.52 µM (active)
IC50 [26]: 16.1 µM
AC50 [27]: 9.9 µM (active)
EC50 (BJ [28]): 9.79 µM (inconclusive)
